From ChEMBL document CHEMBL1201862, “PubChem BioAssay data set” (2004) come the findings set out here.

Activity calls are given as the source filed them. No stated cut-off is given here; in the data, active = IC50 of 10 µM or less and inactive = more. Bounds are passed on as bounds.

Holding throughout (assay type): functional
The target in assay [1] is T1, Melanin-concentrating hormone receptor 1 (Homo sapiens, UniProt Q99705). As to the kind of experiment: Late-stage fluorescence-based counterscreen for antagonists of the G-protein coupled receptor 7 (GPR7): cell-based dose response assay to identify antagonists of the melanin-concentrating hormone receptor 1 (MCHR1) Set 6. For orientation: A counterscreen serves to expose hits that act by an unwanted route or on another target.

Assay [2] deals with T2, Neuropeptides B/W receptor type 1 (Homo sapiens, UniProt P48145). As to the kind of experiment: human NPBW1 receptor blockade, IC50 – cell-based, fluorescence, dose response, set 6, late-stage follow-up (AID 588583).
The target in assay [3] is T1, Melanin-concentrating hormone receptor 1. As to the kind of experiment: Late-stage fluorescence-based counterscreen for antagonists of the G-protein coupled receptor 7 (GPR7): cell-based dose response assay to identify antagonists of the melanin-concentrating hormone receptor 1 (MCHR1) Set 5.
Assay [4] deals with T2, Neuropeptides B/W receptor type 1. As to the kind of experiment: human NPBW1 receptor blockade, IC50 – cell-based, fluorescence, dose response, set 5, late-stage follow-up (AID 588566).

T1 sequence (Q99705 whole entry): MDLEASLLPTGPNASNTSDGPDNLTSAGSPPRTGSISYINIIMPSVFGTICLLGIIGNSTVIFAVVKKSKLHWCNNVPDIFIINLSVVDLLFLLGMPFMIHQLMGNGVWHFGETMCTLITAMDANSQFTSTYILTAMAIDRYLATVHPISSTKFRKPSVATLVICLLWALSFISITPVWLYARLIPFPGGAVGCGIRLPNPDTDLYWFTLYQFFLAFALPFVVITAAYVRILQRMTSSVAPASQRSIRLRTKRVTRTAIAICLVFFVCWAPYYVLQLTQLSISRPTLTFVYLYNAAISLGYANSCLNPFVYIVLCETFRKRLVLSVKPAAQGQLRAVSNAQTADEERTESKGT
T2 sequence (P48145 whole entry): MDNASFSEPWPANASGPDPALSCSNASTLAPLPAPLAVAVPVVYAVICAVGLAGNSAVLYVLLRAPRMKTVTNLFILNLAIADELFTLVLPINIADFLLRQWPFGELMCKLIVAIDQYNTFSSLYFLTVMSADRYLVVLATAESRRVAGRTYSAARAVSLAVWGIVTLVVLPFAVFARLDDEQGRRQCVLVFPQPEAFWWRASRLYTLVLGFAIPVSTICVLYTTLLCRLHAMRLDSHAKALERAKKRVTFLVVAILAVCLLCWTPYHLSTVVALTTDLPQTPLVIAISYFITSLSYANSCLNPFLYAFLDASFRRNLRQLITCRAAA

In the case of `COc1ccc(Oc2c(Cl)cnn(Cc3ccccc3C(=O)O)c2=O)cc1`, the IC50 in assay [1] and in assay [2] was > 20 µM (inactive) in each case.

Consider `Cn1ccc2ccc(Oc3c(Cl)cnn(Cc4cccc5ccccc45)c3=O)cc21`, for which the results for the IC50 in assay [3] and in assay [4] were > 20 µM (inactive) and 3.19 µM (active), respectively.
